Measured values: patent US7244557B2, “Method of screening modulators of Nod1 signaling” (Regents of the University of Michigan, priority 2003, dated 2007)

These substances were tested against T1, TLR2 (Homo sapiens, UniProt O60603) (assay: NF-κB activation assay, cells expressing TLR2 or TLR2 with TLR1 and/or TLR6). Conditions: 1 μg/ml.
T1 construct: expressed in transfected cells; host or cells: HEK293T
Type: cell-based
Procedure: A) Structure of purified PGN fraction from B. subtilis (GM3P) and synthetic PGN-related compounds used in the study. B) Structure of MDP and four copies of GlcNAc-MurNAc with attached L-Ala-γ-D-Gln (4 mer) are indicated by closed and dotted boxes, respectively. C) The ability of cells were transfected with 0.3 ng pcDNA3-NOD1-Flag, 0.1 ng pcDNA3-Nod2 (NOD2) or vector control and reporter pBxIV-luc and pEF-BOS-β-gal plasmids to activate NF-κB. D) The ability of synthetic peptides, iE-DAP and iQ-DAP to stimulate NF-κB activation in the presence of control vector (−) and plasmids encoding NOD1 wild-type, mutant NOD1 lacking LRRs (NOD1ΔLRR) and NOD2. E) The ability of iE-DAP, iQ-DAP and sBLP (1 μg/ml) to activate NF-κB.
Reagents. LPS from S. typhimurium, intact and alkaline-detoxified LPS from E. coli O55:B5 as well as purified lipid A preparations of E. coli F583, MDP, DAP and dsRNA were obtained from Sigma-Aldrich (St. Louis, Mo.). PGN from S. aureus was from Fluka-Chemie (Buchs, Germany). Palmitoyl-Cys ((RS)-2,3-di(palmitoyloxy)-propyl)-Ala-Gly) (sBLP), was obtained from Bachem (Torrance, Calif.). The tetrameric form of the disaccharide dipeptide was described previously (Inohara et al., J. Biol. Chem. 278:5509 [2003]). iE-DAP and iQ-DAP, M3P and M4P were synthesized as described (Kitaura et al., J. Med. Chem. 25:335 [1982]) with small modification. Purification of PGN from B. subtilis 168 and C. flaccumfaciens with hydrolases, Cellosyl or recombinant AtlE (amidase domain) and the fractionation and purification of reduced B. subtilis PGN digested with Cellosyl were performed as previously described (Heilman et al., Mol. Microbiol. 24:1013 [1997]; Atrih et al., J. Bact. 181:3956 [1999]). Removal of proteins and reduction of LPS fraction. E. coli O55:B5 LPS (Sigma) was treated with proteinase K at 37° C. for 12 hr to digest contaminating proteins. […] The amino acid composition of E. coli O55:B5 LPS was determined using AccQ·Tag amino acid analysis system (Waters, Milford, Mass.) after hydrolysis at 110° C. for 24 hr. […]

T1 sequence (O60603 21-784, species assumed): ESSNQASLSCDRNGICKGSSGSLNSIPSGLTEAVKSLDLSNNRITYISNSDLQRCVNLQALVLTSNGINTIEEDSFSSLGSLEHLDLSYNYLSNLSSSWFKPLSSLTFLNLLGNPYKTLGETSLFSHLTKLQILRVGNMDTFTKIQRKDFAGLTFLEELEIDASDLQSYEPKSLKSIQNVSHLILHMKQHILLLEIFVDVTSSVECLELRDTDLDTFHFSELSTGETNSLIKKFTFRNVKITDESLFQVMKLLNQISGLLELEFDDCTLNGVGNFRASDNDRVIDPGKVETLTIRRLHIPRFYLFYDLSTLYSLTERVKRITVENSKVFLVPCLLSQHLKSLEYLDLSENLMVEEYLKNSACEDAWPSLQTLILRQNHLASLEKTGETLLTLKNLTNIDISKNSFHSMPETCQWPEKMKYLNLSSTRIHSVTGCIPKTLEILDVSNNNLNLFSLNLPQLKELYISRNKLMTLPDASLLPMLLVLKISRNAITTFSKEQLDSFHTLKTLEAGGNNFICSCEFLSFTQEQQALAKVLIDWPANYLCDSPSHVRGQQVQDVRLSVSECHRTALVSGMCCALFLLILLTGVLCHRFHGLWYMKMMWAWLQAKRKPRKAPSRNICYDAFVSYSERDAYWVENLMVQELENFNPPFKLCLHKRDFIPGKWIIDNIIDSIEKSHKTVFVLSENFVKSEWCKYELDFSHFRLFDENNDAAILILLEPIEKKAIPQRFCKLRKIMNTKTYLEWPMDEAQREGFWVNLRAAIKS

| Substance | NF-κB activation via TLR2 or TLR2 co-expressed with TLR1 and/or TLR6 |
| --- | --- |
| Palmitoyl-Cys ((RS)-2,3-di(palmitoyloxy)-propyl)-Ala-Gly) [synthetic lipoprotein] | activated TLR2 |
| γ-D-Gln-DAP [iQ-DAP] | not TLR2 or TLR2 co-expressed with TLR1 and/or TLR6 |
| γ-D-glutamy-meso-diaminopimelic acid [iE-DAP] | not TLR2 or TLR2 co-expressed with TLR1 and/or TLR6 |
